Results reported in article PMC9743148 (Annals of oncology : official journal of the European …, 2020).

System: patients with advanced solid tumors
Assay: Treatment-emergent adverse events
Assay type: in vivo, human
[1] = Combined t.i.w. cohorts (n = 42)

SMILES: C=CC(=O)N1CC[C@H](n2nc(C#Cc3cc(OC)cc(OC)c3)c3c(N)ncnc32)C1 [futibatinib]
- Dry mouth TEAE, Grade 3 (Combined q.d. cohorts (n = 44)): 0 (0) n (%)
- Dry mouth TEAE, Grade 4 (Combined q.d. cohorts (n = 44)): 0 (0) n (%)
- Dry skin TEAE, Any grade (Combined q.d. cohorts (n = 44)): 6 (14) n (%)
- Dry skin TEAE, Grade 1 (Combined q.d. cohorts (n = 44)): 6 (14) n (%)
- Dry skin TEAE, Grade 2 (Combined q.d. cohorts (n = 44)): 0 (0) n (%)
- Dry skin TEAE, Grade 3 (Combined q.d. cohorts (n = 44)): 0 (0) n (%)
- Dry skin TEAE, Grade 4 (Combined q.d. cohorts (n = 44)): 0 (0) n (%)
- Fatigue TEAE, Any grade (Combined q.d. cohorts (n = 44)): 7 (16) n (%)
- Fatigue TEAE, Grade 1 (Combined q.d. cohorts (n = 44)): 3 (7) n (%)
- Fatigue TEAE, Grade 2 (Combined q.d. cohorts (n = 44)): 3 (7) n (%)
- Fatigue TEAE, Grade 3 (Combined q.d. cohorts (n = 44)): 1 (2) n (%)
- Fatigue TEAE, Grade 4 (Combined q.d. cohorts (n = 44)): 0 (0) n (%)
- Headache TEAE, Any grade (Combined q.d. cohorts (n = 44)): 2 (5) n (%)
- Headache TEAE, Grade 1 (Combined q.d. cohorts (n = 44)): 0 (0) n (%)
- Headache TEAE, Grade 2 (Combined q.d. cohorts (n = 44)): 1 (2) n (%)
- Headache TEAE, Grade 3 (Combined q.d. cohorts (n = 44)): 1 (2) n (%)
- Headache TEAE, Grade 4 (Combined q.d. cohorts (n = 44)): 0 (0) n (%)
- Hypercalcemia TEAE, Any grade (Combined q.d. cohorts (n = 44)): 0 (0) n (%)
- Hypercalcemia TEAE, Grade 1 (Combined q.d. cohorts (n = 44)): 0 (0) n (%)
- Hypercalcemia TEAE, Grade 2 (Combined q.d. cohorts (n = 44)): 0 (0) n (%)
- Hypercalcemia TEAE, Grade 3 (Combined q.d. cohorts (n = 44)): 0 (0) n (%)
- Hypercalcemia TEAE, Grade 4 (Combined q.d. cohorts (n = 44)): 0 (0) n (%)
- Hyperphosphatemia TEAE, Any grade (Combined q.d. cohorts (n = 44)): 30 (68) n (%)
- Hyperphosphatemia TEAE, Grade 1 (Combined q.d. cohorts (n = 44)): 13 (30) n (%)
- Hyperphosphatemia TEAE, Grade 2 (Combined q.d. cohorts (n = 44)): 10 (23) n (%)
- Hyperphosphatemia TEAE, Grade 4 (Combined q.d. cohorts (n = 44)): 0 (0) n (%)
- Hyperphosphatemia TEAE, grade 3 (Combined q.d. cohorts (n = 44)): 7 (16) n (%)
- Hypomagnesemia TEAE, Any grade (Combined q.d. cohorts (n = 44)): 3 (7) n (%)
- Hypomagnesemia TEAE, Grade 1 (Combined q.d. cohorts (n = 44)): 3 (7) n (%)
- Hypomagnesemia TEAE, Grade 2 (Combined q.d. cohorts (n = 44)): 0 (0) n (%)
- Hypomagnesemia TEAE, Grade 3 (Combined q.d. cohorts (n = 44)): 0 (0) n (%)
- Hypomagnesemia TEAE, Grade 4 (Combined q.d. cohorts (n = 44)): 0 (0) n (%)
- Hyponatremia TEAE, Any grade (Combined q.d. cohorts (n = 44)): 2 (5) n (%)
- Hyponatremia TEAE, Grade 1 (Combined q.d. cohorts (n = 44)): 0 (0) n (%)
- Hyponatremia TEAE, Grade 2 (Combined q.d. cohorts (n = 44)): 0 (0) n (%)
- Hyponatremia TEAE, Grade 3 (Combined q.d. cohorts (n = 44)): 2 (5) n (%)
- Hyponatremia TEAE, Grade 4 (Combined q.d. cohorts (n = 44)): 0 (0) n (%)
- Nausea TEAE, Any grade (Combined q.d. cohorts (n = 44)): 13 (30) n (%)
- Nausea TEAE, Grade 1 (Combined q.d. cohorts (n = 44)): 8 (18) n (%)
- Nausea TEAE, Grade 2 (Combined q.d. cohorts (n = 44)): 3 (7) n (%)
- Nausea TEAE, Grade 3 (Combined q.d. cohorts (n = 44)): 2 (5) n (%)
- Nausea TEAE, Grade 4 (Combined q.d. cohorts (n = 44)): 0 (0) n (%)
- Onycholysis TEAE, Any grade (Combined q.d. cohorts (n = 44)): 1 (2) n (%)
- Onycholysis TEAE, Grade 1 (Combined q.d. cohorts (n = 44)): 1 (2) n (%)
- Onycholysis TEAE, Grade 2 (Combined q.d. cohorts (n = 44)): 0 (0) n (%)
- Onycholysis TEAE, Grade 3 (Combined q.d. cohorts (n = 44)): 0 (0) n (%)
- Onycholysis TEAE, Grade 4 (Combined q.d. cohorts (n = 44)): 0 (0) n (%)
- Pyrexia TEAE, Any grade (Combined q.d. cohorts (n = 44)): 5 (11) n (%)
- Pyrexia TEAE, Grade 1 (Combined q.d. cohorts (n = 44)): 3 (7) n (%)
- Pyrexia TEAE, Grade 2 (Combined q.d. cohorts (n = 44)): 1 (2) n (%)
- Pyrexia TEAE, Grade 3 (Combined q.d. cohorts (n = 44)): 1 (2) n (%)
- Pyrexia TEAE, Grade 4 (Combined q.d. cohorts (n = 44)): 0 (0) n (%)
- Rash TEAE, Any grade (Combined q.d. cohorts (n = 44)): 1 (2) n (%)
- Rash TEAE, Grade 1 (Combined q.d. cohorts (n = 44)): 1 (2) n (%)
- Rash TEAE, Grade 2 (Combined q.d. cohorts (n = 44)): 0 (0) n (%)
- Rash TEAE, Grade 3 (Combined q.d. cohorts (n = 44)): 0 (0) n (%)
- Rash TEAE, Grade 4 (Combined q.d. cohorts (n = 44)): 0 (0) n (%)
- Stomatitis TEAE, Any grade (Combined q.d. cohorts (n = 44)): 9 (20) n (%)
- Stomatitis TEAE, Grade 1 (Combined q.d. cohorts (n = 44)): 6 (14) n (%)
- Stomatitis TEAE, Grade 2 (Combined q.d. cohorts (n = 44)): 2 (5) n (%)
- Stomatitis TEAE, Grade 3 (Combined q.d. cohorts (n = 44)): 1 (2) n (%)
- Stomatitis TEAE, Grade 4 (Combined q.d. cohorts (n = 44)): 0 (0) n (%)
- Treatment discontinuation because of TEAE, Any grade (Combined q.d. cohorts (n = 44)): 2 (5) n (%)
- Treatment discontinuation because of TEAE, Grade 1 (Combined q.d. cohorts (n = 44)): 0 (0) n (%)
- Treatment discontinuation because of TEAE, Grade 2 (Combined q.d. cohorts (n = 44)): 1 (2) n (%)
- Treatment discontinuation because of TEAE, Grade 3 (Combined q.d. cohorts (n = 44)): 1 (2) n (%)
- Treatment discontinuation because of TEAE, Grade 4 (Combined q.d. cohorts (n = 44)): 0 (0) n (%)
- Urinary tract infection TEAE, Any grade (Combined q.d. cohorts (n = 44)): 0 (0) n (%)
- Urinary tract infection TEAE, Grade 1 (Combined q.d. cohorts (n = 44)): 0 (0) n (%)
- Urinary tract infection TEAE, Grade 2 (Combined q.d. cohorts (n = 44)): 0 (0) n (%)
- Urinary tract infection TEAE, Grade 3 (Combined q.d. cohorts (n = 44)): 0 (0) n (%)
- Urinary tract infection TEAE, Grade 4 (Combined q.d. cohorts (n = 44)): 0 (0) n (%)
- Vomiting TEAE, Any grade (Combined q.d. cohorts (n = 44)): 11 (25) n (%)
- Vomiting TEAE, Grade 1 (Combined q.d. cohorts (n = 44)): 6 (14) n (%)
- Vomiting TEAE, Grade 2 (Combined q.d. cohorts (n = 44)): 3 (7) n (%)
- Vomiting TEAE, Grade 3 (Combined q.d. cohorts (n = 44)): 2 (5) n (%)
- Vomiting TEAE, Grade 4 (Combined q.d. cohorts (n = 44)): 0 (0) n (%)
- ALT increased TEAE, Any grade [1]: 5 (12) n (%)
- ALT increased TEAE, Grade 1 [1]: 3 (7) n (%)
- ALT increased TEAE, Grade 2 [1]: 1 (2) n (%)
- ALT increased TEAE, Grade 3 [1]: 1 (2) n (%)
- ALT increased TEAE, Grade 4 [1]: 0 (0) n (%)
- AST increased TEAE, Any grade [1]: 4 (10) n (%)
